Data as given in PubChem BioAssay AID1259407 (Chemical Carcinogenesis Research Information System (CCRIS), 2018).
Active and inactive are the calls of the source. No rule for the calls is given here.

Test system: CCRIS mutagenicity, Ames/micronucleus/aberration tests
Test: CCRIS mutagenicity studies

Measured: mutagenic call

O=CNNc1nc(-c2ccc([N+](=O)[O-])o2)cs1
active: Test System: AMES SALMONELLA TYPHIMURIUM, Strain/Indicator: TA100, Metabolic Activation: RAT, LIVER, S-9, KC500 OR PHENOBARBITAL, Method: LIQUID SUSPENSION active; positive | Test System: E. COLI, Strain/Indicator: WP2, Metabolic Activation: NONE, Method: SPOT active; positive | Test System: E. COLI, Strain/Indicator: WP2 UVRA, Metabolic Activation: NONE, Method: SPOT active; positive
